Laboratory results taken from PubChem BioAssay AID489033 (Sanford-Burnham Center for Chemical Genomics, 2010).
Activity calls are given as the source filed them. The rule behind the calls is not given here.

Test system: 697B B-cell line, NF-kB luciferase reporter luminescence
Experiment: NF-kB reporter inhibition in B cells, dose response, selectivity assay for T-cell antigen receptor NF-kB inhibitors, 697B cells, luminescence (AID 489033)

Compound | IC50
O=C(N/N=C/c1ccccc1Cl)c1[nH]c2ccc(Br)cc2c1-c1ccccc1 | > 80 µM (inactive)
C=C(C)C(=O)O[C@H]1C/C(C)=C\C(=O)/C=C(\C)[C@H](O)[C@@H]2OC(=O)C(=C)[C@@H]21 | 1.06 µM
CCC/C(O)=C1\C(=O)CC(C)(C)CC1=Nc1ccc(OC)cc1OC | > 80 µM (inactive)
O=c1oc2ccccc2cc1-c1cn(-c2ccccc2)c(=S)[nH]1 | 0.55 µM
CCOC(=O)c1[nH]c(C)c(C(=O)OCC(=O)NC(C)c2ccc(F)cc2)c1C (stereo not given) | > 80 µM (inactive)
Cc1oc(-c2ccc(Cl)cc2)nc1CS(=O)CC(=O)NCCCN1CCN(Cc2ccccc2)CC1 (stereo not given) | 60.8 µM (inactive)
COc1cc(/C=C/[N+](=O)[O-])ccc1OCc1cccc(C(=O)O)c1 | 12 µM
O=C(COc1ccccc1-c1ccccc1)N/N=C/c1cccc2ccccc12 | > 80 µM (inactive)
COc1ccc2c(c1)C(=O)N1[C@H]3c4cc(Br)ccc4OC[C@@H]3[C@H](c3ccccc3)[C@]1(C)C(=O)N2 | > 80 µM (inactive)
CC(=O)O[C@@]12CO[C@@H]1C[C@@H](O)[C@@]1(C)C(=O)[C@H](O)C3=C(C)[C@@H](OC(=O)[C@H](O)[C@@H](NC(=O)c4ccccc4)c4ccccc4)C[C@@](O)([C@@H](OC(=O)c4ccccc4)C12)C3(C)C (stereo not given in full) | > 80 µM (inactive)
CCc1ccc(/C=N/NC(=O)c2cc(C3CC3)nc3ccccc23)s1 | 23.3 µM (inactive)
O=C(Nc1ccc(S(=O)(=O)N2CCN(Cc3ccccc3)CC2)cc1)c1cnccn1 | > 80 µM (inactive)
O=S1(=O)C=C(Sc2nc3cc(Cl)ccc3o2)c2ccccc21 | 0.21 µM
Cc1ccc(C(=O)Nc2cc3ccccc3oc2=O)cc1 | 2.11 µM
CCCOc1ccccc1C1CC(=O)Nc2cc3c(cc21)OCO3 (stereo not given) | > 80 µM (inactive)
COc1cc(/C=C/c2ccc3cccc(O)c3n2)cc(OC)c1OC | 0.63 µM
CC(C)Oc1ccccc1C1CC(=O)Nc2cc3c(cc21)OCCO3 (stereo not given) | 59.5 µM (inactive)
COc1ccc(Nc2cc(C)nc(-n3nc(C)cc3C)n2)cc1 | > 80 µM (inactive)
Brc1ccc2c(c1)C(C1=NCCN1)c1ccccc1CS2 (stereo not given) | > 80 µM (inactive)
Oc1ccccc1N=Nc1nc(-c2ccccc2)c(-c2ccccc2)[nH]1 | 4.55 µM
COc1cc2nc(NC(=O)c3ccco3)sc(=O)c2cc1OC | 0.67 µM
CNC[C@H](CC1CCCCC1)NC[C@H](Cc1ccccc1)NCCC12CC3CC(CC(C3)C1)C2 | 7.73 µM
CC(=O)Nc1ccc(S(=O)(=O)N2CCSc3ccccc32)cc1 | > 80 µM (inactive)
C#Cc1ccc([C@@H]2C=C(C(=O)N3CCN(Cc4ccccc4)CC3)O[C@H](OCCCCO)C2)cc1 | > 80 µM (inactive)

Compound | IC50
Cn1nc(CC(=O)Nc2ccc(N3CCN(C(=O)OC(C)(C)C)CC3)cc2)c2ccccc2c1=O | > 80 µM (inactive)
Cc1nc(Sc2nnnn2C)c2c3c(sc2n1)CCC3 | > 80 µM (inactive)
Cc1ccc(COC(=O)c2cc([N+](=O)[O-])ccc2N2CCOCC2)cc1 | > 80 µM (inactive)
Cc1ccc2c(c1)sc(-c1ccc(N(C)C)cc1)[n+]2C | 33.6 µM (inactive)
Cc1ccc(N/C(N)=N/c2nc(CSc3nnc(C)s3)cc(=O)[nH]2)c(C)c1 | > 80 µM (inactive)
CCN(CC)S(=O)(=O)c1ccc(NC(=O)c2ccc(CN3CCOCC3)cc2)cc1 | 10.1 µM
Cc1cnc(NC(=O)c2ccc3c(c2)OCCO3)s1 | 1.08 µM
COc1ccc(/C=C/C(=O)c2cc(F)ccc2OC(=O)c2ccccc2)cc1OC | > 80 µM (inactive)
Cc1ccc(-c2cc(-c3ccc(C)cc3)[n+](-c3ccccc3)c(-c3ccc(C)cc3)c2)cc1 | 0.7 µM
CSC1=NC(C(Cl)(Cl)Cl)N=C(c2ccc(C)cc2)N1 (stereo not given) | > 80 µM (inactive)
Cn1c(SC2=CS(=O)(=O)c3ccccc32)nc2ccccc21 | 3.54 µM
O[C@@H]1[C@@H](O)C=C2CCN3Cc4cc5c(cc4[C@H]1C23)OCO5 (stereo not given in full) | 3.28 µM
CC(Nc1ncnc2ccccc12)c1ccccc1 (stereo not given) | > 80 µM (inactive)
COc1ccc(CS(=O)/C(Cl)=C(/Cl)C(=O)Nc2ccc(OC)nc2)cc1 (stereo not given) | 1.57 µM
CCCC(=O)NC(c1ccc(N(C)C)cc1)c1ccc2cccnc2c1O (stereo not given) | > 80 µM (inactive)
O=C1C=CCC(/C=C/c2ccccc2)O1 (stereo not given) | 2.18 µM
O=C(Nc1ccc(C(F)(F)F)cc1)c1cccn(Cc2ccc3c(c2)OC(F)(F)O3)c1=O | > 80 µM (inactive)
O=C(c1ccccc1)c1cc([N+](=O)[O-])ccc1N1CCOCC1 | > 80 µM (inactive)
CCOC(=O)C(C)Oc1cccc2c(=O)n(CC(=O)NCc3ccco3)ccc12 (stereo not given) | > 80 µM (inactive)
CCCCOc1ccccc1C1CC(=O)NC2=C1C(=O)CCC2 (stereo not given) | > 80 µM (inactive)
CCOc1ccccc1C1CC(=O)Nc2cc3c(cc21)OCCO3 (stereo not given) | > 80 µM (inactive)
Oc1ccc2ccccc2c1/C=N/Nc1nnc(-c2ncc[nH]2)c2ccccc12 | > 80 µM (inactive)
Cc1cccc(NS(=O)(=O)c2ccc(-c3cnc(C4CC4)o3)cc2)c1 | > 80 µM (inactive)
Cc1ncoc1C(=O)NC1CCCc2c1cnn2-c1ccc(C(C)(C)C)cc1 (stereo not given) | 69.7 µM (inactive)

Compound | IC50
CCOc1ccc2c(c1)OC(c1ccc(C)cc1)(C(F)(F)F)NC2=O (stereo not given) | > 80 µM (inactive)
Cc1ccc(C)c(CSc2nc3[nH]ncc3c(=O)[nH]2)c1 | 15.7 µM
COc1ccccc1-c1nnc2n1N=C(c1ccc(O)c(O)c1)CS2 | 77.9 µM (inactive)
Cc1ccc(S(=O)(=O)NCc2ccncc2)cc1C | > 80 µM (inactive)
CCOC(=O)c1ccc2nc(Nc3nc4ccc(F)cc4s3)sc2c1 | 20.3 µM (inactive)
CC(C)Nc1ccc(C(CC(N)=O)NC(=O)c2ccc(Br)cc2)cc1[N+](=O)[O-] (stereo not given) | > 80 µM (inactive)
CCOc1ccccc1NS(=O)(=O)c1ccc(-c2cnc(C3CC3)o2)cc1 | > 80 µM (inactive)
COC(=O)c1[nH]c2c(c1C)C(=O)CC(c1cccs1)C2 (stereo not given) | > 80 µM (inactive)
O=C(Nc1ccc(S(=O)(=O)Nc2ccc(F)cc2)cc1)c1ccc(CN2CCOCC2)cc1 | > 80 µM (inactive)
CC(C)(C)C(=O)Nc1ccc(NC(=O)c2ccco2)nc1 | 1.47 µM
COc1ccc([C@H]2CC(=O)C=C(c3c(OC)cccc3OC)C2)cc1 | > 80 µM (inactive)
COc1ccc(S(=O)(=O)/N=C2\C=C(Nc3ccc(O)cc3)C(=O)c3ccccc32)cc1 | 2.18 µM
Cc1ccc(NC(=O)CSc2nc(-c3ccco3)cc(C(F)(F)F)n2)cc1C | > 80 µM (inactive)
COc1cc(C2c3cc4c(cc3C(OC3OC5COC(c6cccs6)OC5C(O)C3O)C3COC(=O)C23)OCO4)cc(OC)c1O (stereo not given) | 3.94 µM
Cc1noc(C)c1CSc1nc2ccccc2c(=O)n1-c1ccccc1 | > 80 µM (inactive)
Cc1ccc(C(=O)c2cc([N+](=O)[O-])ccc2N2CCOCC2)cc1C | > 80 µM (inactive)
Cc1ccc(O)c(NC(=O)CCC2CCCCC2)c1 | > 80 µM (inactive)
CCOc1ccc(S(=O)(=O)N2c3ccccc3CC2C)cc1 (stereo not given) | > 80 µM (inactive)
COCCn1c(C)cc(C2=NNC(=Nc3ccccc3F)SC2)c1C | 20.7 µM (inactive)
CCN(CC)S(=O)(=O)c1cc(NC(=O)CNc2cccc(S(=O)(=O)N3CCCC3)c2)ccc1C | > 80 µM (inactive)
Cc1cc(C(C)(C)C)cc(C)c1C[n+]1ccc2ccccc2c1 | > 80 µM (inactive)
CCOC(=O)c1[nH]c2c(c1C)C(=O)CC(c1ccc(F)cc1)C2 (stereo not given) | > 80 µM (inactive)
